Results taken from ChEMBL document CHEMBL3885881, “DrugMatrix”.

Species: Rattus norvegicus
Experiment: DrugMatrix - Regimen: Daily Repeat
Format: toxicity, organism-based, Sprague-Dawley
Set-up: regimen Daily Repeat, gender Male, age 6-8 weeks
Details: in vivo, po, route oral GAVAGE, vehicle .5 % CMC; for ABSOLUTE BASOPHIL / ABSOLUTE EOSINOPHIL / ABSOLUTE LYMPHOCYTE / ABSOLUTE MONOCYTE / ABSOLUTE SEGMENTED NEUTROPHIL / BASOPHIL / EOSINOPHIL / ERYTHROCYTE COUNT / HEMATOCRIT / HEMOGLOBIN / LEUKOCYTE COUNT / LYMPHOCYTE / MEAN CORPUSCULAR HEMOGLOBIN / MEAN CORPUSCULAR HEMOGLOBIN CONCENTRATION / MEAN CORPUSCULAR VOLUME / MONOCYTE / NEUTROPHIL / NUCLEATED RED BLOOD CELLS / PLATELET COUNT: tissue Blood; for ALANINE AMINOTRANSFERASE / ALBUMIN / ALKALINE PHOSPHATASE / ASPARTATE AMINOTRANSFERASE / BLOOD UREA NITROGEN / CARBON DIOXIDE / CHLORIDE / CHOLESTEROL / CREATINE PHOSPHOKINASE / CREATININE / GLUCOSE / LACTATE DEHYDROGENASE / LIPASE / PHOSPHORUS / POTASSIUM / SODIUM / TOTAL BILIRUBIN / TOTAL PROTEIN / URIC ACID: tissue Plasma
[1] = 0 mg/kg, 72 h, dose level Control, time 3 day
[2] = 0 mg/kg, 120 h, dose level Control, time 5 day
[3] = 60 mg/kg, 72 h, dose level Low, time 3 day
[4] = 60 mg/kg, 120 h, dose level Low, time 5 day

## CC(C)[C@H]1CC[C@H](C(=O)N[C@H](Cc2ccccc2)C(=O)O)CC1 [NATEGLINIDE]
[1]
  ABSOLUTE BASOPHIL: 0 CELLS/uL
  ABSOLUTE EOSINOPHIL: 35.67 CELLS/uL
  ABSOLUTE LYMPHOCYTE: 9125.17 CELLS/uL
  ABSOLUTE MONOCYTE: 50.17 CELLS/uL
  ABSOLUTE SEGMENTED NEUTROPHIL: 722.33 CELLS/uL
  BASOPHIL: 0%
  EOSINOPHIL: 0.33%
  ERYTHROCYTE COUNT: 5.35 x10E6/uL
  HEMATOCRIT: 33.58%
  HEMOGLOBIN: 13.35 G/DL
  LEUKOCYTE COUNT: 9.93 x10E3/uL
  LYMPHOCYTE: 91.67%
  MEAN CORPUSCULAR HEMOGLOBIN: 25 pg
  MEAN CORPUSCULAR HEMOGLOBIN CONCENTRATION: 39.8 G/DL
  MEAN CORPUSCULAR VOLUME: 62.77 fL
  MONOCYTE: 0.67%
  NEUTROPHIL: 7.33%
  NUCLEATED RED BLOOD CELLS: 0 /100WBC
  PLATELET COUNT: 866.17 x10E3/uL
  ALANINE AMINOTRANSFERASE: 57.17 u/L
  ALBUMIN: 4.22 G/DL
  ALKALINE PHOSPHATASE: 391 u/L
  ASPARTATE AMINOTRANSFERASE: 95.17 u/L
  BLOOD UREA NITROGEN: 13.67 mg/dL
  CARBON DIOXIDE: 30 mmol/L
  CHLORIDE: 102.5 MEQ/L
  CHOLESTEROL: 72 mg/dL
  CREATINE PHOSPHOKINASE: 485.67 u/L
  CREATININE: 0.27 mg/dL
  GLUCOSE: 152 mg/dL
  LACTATE DEHYDROGENASE: 372.67 u/L
  LIPASE: 9.83 u/L
  PHOSPHORUS: 12.47 mg/dL
  POTASSIUM: 6.81 MEQ/L
  SODIUM: 144.1 MEQ/L
  TOTAL BILIRUBIN: 0.23 mg/dL
  TOTAL PROTEIN: 5.93 G/DL
  URIC ACID: 1.9 mg/dL
[2]
  ABSOLUTE BASOPHIL: 0 CELLS/uL
  ABSOLUTE EOSINOPHIL: 67.33 CELLS/uL
  ABSOLUTE LYMPHOCYTE: 11419.17 CELLS/uL
  ABSOLUTE MONOCYTE: 203.17 CELLS/uL
  ABSOLUTE SEGMENTED NEUTROPHIL: 1327 CELLS/uL
  BASOPHIL: 0%
  EOSINOPHIL: 0.5%
  ERYTHROCYTE COUNT: 5.65 x10E6/uL
  HEMATOCRIT: 35.3%
  HEMOGLOBIN: 13.98 G/DL
  LEUKOCYTE COUNT: 13.02 x10E3/uL
  LYMPHOCYTE: 88%
  MEAN CORPUSCULAR HEMOGLOBIN: 24.78 pg
  MEAN CORPUSCULAR HEMOGLOBIN CONCENTRATION: 39.63 G/DL
  MEAN CORPUSCULAR VOLUME: 62.58 fL
  MONOCYTE: 1.33%
  NEUTROPHIL: 10.17%
  NUCLEATED RED BLOOD CELLS: 0 /100WBC
  PLATELET COUNT: 1213.83 x10E3/uL
  ALANINE AMINOTRANSFERASE: 49.67 u/L
  ALBUMIN: 4.28 G/DL
  ALKALINE PHOSPHATASE: 362.33 u/L
  ASPARTATE AMINOTRANSFERASE: 99 u/L
  BLOOD UREA NITROGEN: 20.67 mg/dL
  CARBON DIOXIDE: 26.33 mmol/L
  CHLORIDE: 102 MEQ/L
  CHOLESTEROL: 63.83 mg/dL
  CREATINE PHOSPHOKINASE: 481.83 u/L
  CREATININE: 0.21 mg/dL
  GLUCOSE: 158 mg/dL
  LACTATE DEHYDROGENASE: 656.33 u/L
  LIPASE: 10.67 u/L
  PHOSPHORUS: 12.27 mg/dL
  POTASSIUM: 6.17 MEQ/L
  SODIUM: 143.35 MEQ/L
  TOTAL BILIRUBIN: 0.17 mg/dL
  TOTAL PROTEIN: 6.13 G/DL
  URIC ACID: 1.48 mg/dL
[3]
  ABSOLUTE BASOPHIL: 0 CELLS/uL
  ABSOLUTE EOSINOPHIL: 0 CELLS/uL
  ABSOLUTE LYMPHOCYTE: 9045.33 CELLS/uL
  ABSOLUTE MONOCYTE: 160.67 CELLS/uL
  ABSOLUTE SEGMENTED NEUTROPHIL: 994 CELLS/uL
  BASOPHIL: 0%
  EOSINOPHIL: 0%
  ERYTHROCYTE COUNT: 5.13 x10E6/uL
  HEMATOCRIT: 32.57%
  HEMOGLOBIN: 13.4 G/DL
  LEUKOCYTE COUNT: 10.2 x10E3/uL
  LYMPHOCYTE: 88.33%
  MEAN CORPUSCULAR HEMOGLOBIN: 26.2 pg
  MEAN CORPUSCULAR HEMOGLOBIN CONCENTRATION: 41.17 G/DL
  MEAN CORPUSCULAR VOLUME: 63.67 fL
  MONOCYTE: 1.67%
  NEUTROPHIL: 10%
  NUCLEATED RED BLOOD CELLS: 0 /100WBC
  PLATELET COUNT: 720 x10E3/uL
  ALANINE AMINOTRANSFERASE: 53.67 u/L
  ALBUMIN: 4.27 G/DL
  ALKALINE PHOSPHATASE: 449.67 u/L
  ASPARTATE AMINOTRANSFERASE: 94.67 u/L
  BLOOD UREA NITROGEN: 17 mg/dL
  CARBON DIOXIDE: 30.33 mmol/L
  CHLORIDE: 103.67 MEQ/L
  CHOLESTEROL: 73.67 mg/dL
  CREATINE PHOSPHOKINASE: 447.67 u/L
  CREATININE: 0.2 mg/dL
  GLUCOSE: 149 mg/dL
  LACTATE DEHYDROGENASE: 345.33 u/L
  LIPASE: 8.67 u/L
  PHOSPHORUS: 13 mg/dL
  POTASSIUM: 6.04 MEQ/L
  SODIUM: 145.07 MEQ/L
  TOTAL BILIRUBIN: 0.13 mg/dL
  TOTAL PROTEIN: 5.87 G/DL
  URIC ACID: 1.33 mg/dL
[4]
  ABSOLUTE BASOPHIL: 0 CELLS/uL
  ABSOLUTE EOSINOPHIL: 124 CELLS/uL
  ABSOLUTE LYMPHOCYTE: 13794 CELLS/uL
  ABSOLUTE MONOCYTE: 49 CELLS/uL
  ABSOLUTE SEGMENTED NEUTROPHIL: 933 CELLS/uL
  BASOPHIL: 0%
  EOSINOPHIL: 0.67%
  ERYTHROCYTE COUNT: 5.42 x10E6/uL
  HEMATOCRIT: 34.03%
  HEMOGLOBIN: 13.53 G/DL
  LEUKOCYTE COUNT: 14.9 x10E3/uL
  LYMPHOCYTE: 92.33%
  MEAN CORPUSCULAR HEMOGLOBIN: 25 pg
  MEAN CORPUSCULAR HEMOGLOBIN CONCENTRATION: 39.77 G/DL
  MEAN CORPUSCULAR VOLUME: 62.87 fL
  MONOCYTE: 0.33%
  NEUTROPHIL: 6.67%
  NUCLEATED RED BLOOD CELLS: 0 /100WBC
  PLATELET COUNT: 1175.33 x10E3/uL
  ALANINE AMINOTRANSFERASE: 57.67 u/L
  ALBUMIN: 4.2 G/DL
  ALKALINE PHOSPHATASE: 396.67 u/L
  ASPARTATE AMINOTRANSFERASE: 87 u/L
  BLOOD UREA NITROGEN: 20 mg/dL
  CARBON DIOXIDE: 25 mmol/L
  CHLORIDE: 104 MEQ/L
  CHOLESTEROL: 56 mg/dL
  CREATINE PHOSPHOKINASE: 315 u/L
  CREATININE: 0.27 mg/dL
  GLUCOSE: 169.67 mg/dL
  LACTATE DEHYDROGENASE: 303.33 u/L
  LIPASE: 10.67 u/L
  PHOSPHORUS: 12.97 mg/dL
  POTASSIUM: 5.61 MEQ/L
  SODIUM: 144.73 MEQ/L
  TOTAL BILIRUBIN: 0.23 mg/dL
  TOTAL PROTEIN: 5.93 G/DL
  URIC ACID: 1.37 mg/dL
